Measured values reported in ChEMBL document CHEMBL5532661, “Discovery of a Novel Glucagon-like Peptide-1 (GLP-1) Analogue from Bullfrog and Investigation of Its Potential for Designing GLP-1-Based Multiagonists” (J Med Chem, 2024).
pEC50: −log10 of the molar value. Calls of active or inactive are those of the source. The rule behind the calls is not given here. Numbered stars: 1 amine (or outer) side, 2 acyl side, 3 side chain; on linkers, the order of the positions; unused ones are H or OH. Side chains are listed from the residue outwards. Peptide text beside a SMILES is read from it. * marks the point of attachment. γGlu = O=C(O)[C@H](CCC(=O)[*:2])N[*:1]; Palmitoyl = CCCCCCCCCCCCCCCC(=O)*

How the values were obtained:
Mus musculus [1] = assay: Reduction in total cholesterol in DIO mouse at 30 nmol/kg, sc treated twice a day measured after 21 days; type: functional, organism-based; conditions: time 21.0 day
Mus musculus [2] = assay: Hypoglycemic effect in ICR mouse treated with 3 g/kg glucose assessed as reduction in blood glucose level at 10 nmol/kg, sc measured upto 120 mins by acute glucose lowering test; type: functional, organism-based
Mus musculus [3] = assay: Antihyperglycemic effect in DIO mouse assessed as prolonged antihyperglycemic duration by measuring blood glucose at 100 nmol/kg, sc; type: functional, organism-based
Mus musculus [4] = assay: Reduction in serum ALT level in DIO mouse at 30 nmol/kg, sc treated twice a day measured after 21 days; type: functional, organism-based; conditions: time 21.0 day
Mus musculus [5] = assay: Reduction in blood glucose level in non-fasting DIO mouse at 30 nmol/kg, sc treated twice a day measured after 21 days by glucose tolerance test; type: functional, organism-based; conditions: time 21.0 day
[6] = molecular target: T1, Glucagon-like peptide 1 receptor (Mus musculus) (UniProt O35659); assay: Potency index, ratio of GLP-1 EC50 to test compound EC50 for agonist activity at mouse GLP-1 receptor expressed in HEK293 cells assessed as cAMP level measured after 60 mins by HTRF based assay; type: functional, cell-based; conditions: filed as agonist
T1 sequence (whole entry): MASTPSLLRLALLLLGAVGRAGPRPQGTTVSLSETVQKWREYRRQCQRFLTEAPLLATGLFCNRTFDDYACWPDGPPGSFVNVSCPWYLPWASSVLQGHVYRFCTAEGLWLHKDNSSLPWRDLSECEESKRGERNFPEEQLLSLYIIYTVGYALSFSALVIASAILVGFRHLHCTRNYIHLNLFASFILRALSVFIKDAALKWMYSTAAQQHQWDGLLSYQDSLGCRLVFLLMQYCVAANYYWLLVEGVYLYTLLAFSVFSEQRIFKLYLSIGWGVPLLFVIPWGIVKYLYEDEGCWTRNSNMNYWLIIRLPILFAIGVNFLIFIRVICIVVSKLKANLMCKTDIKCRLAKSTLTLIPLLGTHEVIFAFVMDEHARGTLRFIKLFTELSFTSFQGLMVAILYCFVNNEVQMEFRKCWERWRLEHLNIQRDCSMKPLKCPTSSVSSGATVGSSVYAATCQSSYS

[7] = molecular target: T1, Glucagon-like peptide 1 receptor (Mus musculus); assay: Agonist activity at mouse GLP-1 receptor expressed in HEK293 cells assessed as cAMP level measured after 60 mins by HTRF based assay; type: functional, cell-based; conditions: filed as agonist
Mus musculus [8] = assay: Reduction in total fat mass in DIO mouse at 30 nmol/kg, sc treated twice a day measured after 21 days; type: functional, organism-based; conditions: time 21.0 day
Mus musculus [9] = assay: Reduction in body weight in DIO mouse at 30 nmol/kg, sc treated twice a day measured after 21 days; type: functional; set-up: scale not given: the % may be the effect or the level left; conditions: time 21 day
Mus musculus [10] = assay: Antihyperglycemic effect in DIO mouse assessed as antihyperglycemic duration by measuring blood glucose at 30 nmol/kg, sc administered twice daily measured after 72 hrs by hypoglycemic duration assay; type: functional, organism-based
Mus musculus [11] = assay: Anorexigenic effect in ICR mouse assessed as decrease in food intake at 30 nmol/kg, sc measured at 48 hrs by acute food intake study; type: functional, organism-based
[12] = molecular target: Glucagon receptor (Mus musculus) (UniProt Q61606); assay: Agonist activity at mouse GCGR receptor expressed in HEK293 cells assessed as cAMP level measured after 60 mins by HTRF based assay; type: functional, cell-based; conditions: filed as agonist
Chain of Glucagon receptor (Mus musculus) (Q61606 whole entry): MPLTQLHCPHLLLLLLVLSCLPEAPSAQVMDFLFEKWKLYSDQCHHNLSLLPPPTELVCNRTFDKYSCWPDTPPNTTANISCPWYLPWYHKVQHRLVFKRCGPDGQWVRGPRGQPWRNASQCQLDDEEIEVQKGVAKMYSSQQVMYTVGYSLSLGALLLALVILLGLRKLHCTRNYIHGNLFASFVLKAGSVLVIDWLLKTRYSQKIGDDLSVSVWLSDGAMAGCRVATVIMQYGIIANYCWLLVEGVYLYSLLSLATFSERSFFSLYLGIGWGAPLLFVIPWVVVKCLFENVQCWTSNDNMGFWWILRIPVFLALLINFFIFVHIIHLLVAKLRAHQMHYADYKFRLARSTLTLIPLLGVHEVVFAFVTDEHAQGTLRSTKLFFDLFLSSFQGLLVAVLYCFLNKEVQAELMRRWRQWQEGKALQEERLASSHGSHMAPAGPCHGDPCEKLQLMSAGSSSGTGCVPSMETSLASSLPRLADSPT

Glucagon receptor [13] = molecular target: T2, Glucagon receptor (Homo sapiens, UniProt P47871); assay: Agonist activity at human GCGR expressed in HEK293 cells assessed as cAMP level measured after 60 mins by HTRF based assay; type: functional, cell-based
T2 sequence (P47871 whole entry): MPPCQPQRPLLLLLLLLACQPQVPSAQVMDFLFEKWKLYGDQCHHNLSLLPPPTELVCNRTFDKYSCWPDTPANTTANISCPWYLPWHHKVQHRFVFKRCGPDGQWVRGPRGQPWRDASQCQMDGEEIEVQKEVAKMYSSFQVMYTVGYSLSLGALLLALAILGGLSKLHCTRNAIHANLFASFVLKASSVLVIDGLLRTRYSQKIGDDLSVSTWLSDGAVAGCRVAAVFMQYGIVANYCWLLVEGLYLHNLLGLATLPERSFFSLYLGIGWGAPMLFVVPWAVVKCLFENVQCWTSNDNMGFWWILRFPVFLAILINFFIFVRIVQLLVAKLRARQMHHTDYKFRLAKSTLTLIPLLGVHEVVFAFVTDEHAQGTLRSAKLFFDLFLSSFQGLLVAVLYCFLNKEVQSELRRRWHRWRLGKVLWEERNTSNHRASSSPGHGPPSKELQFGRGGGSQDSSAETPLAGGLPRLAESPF

Mus musculus [14] = assay: Reduction in serum AST level in DIO mouse at 30 nmol/kg, sc treated twice a day measured after 21 days; type: functional, organism-based; conditions: time 21.0 day
Mus musculus [15] = assay: Hypoglycemic effect in ICR mouse treated with 3 g/kg glucose assessed as reduction in blood glucose level at 100 nmol/kg, sc measured upto 120 mins by acute glucose lowering test; type: functional, organism-based
Mus musculus [16] = assay: Anorexigenic effect in ICR mouse assessed as decrease in food intake at 10 nmol/kg, sc measured upto 72 hrs by acute food intake study; type: functional, organism-based
Glucagon receptor [17] = molecular target: T2, Glucagon receptor; assay: Potency index, ratio of glucagon EC50 to test compound EC50 for agonist activity at human GCGR expressed in HEK293 cells assessed as cAMP level measured after 60 mins by HTRF based assay; type: functional, cell-based; conditions: filed as agonist
Mus musculus [18] = assay: Reduction in serum triglyceride in DIO mouse at 30 nmol/kg, sc treated twice a day measured after 21 days; type: functional, organism-based; conditions: time 21.0 day
Mus musculus [19] = assay: Antihyperglycemic effect in DIO mouse assessed as antihyperglycemic duration by measuring blood glucose at 30 nmol/kg, sc measured after 12 to 24 hrs by hypoglycemic duration assay; type: functional, organism-based; conditions: time 12-24 hrs
Mus musculus [20] = assay: Hypoglycemic effect in ICR mouse treated with 3 g/kg glucose assessed as reduction in blood glucose level at 30 nmol/kg, sc measured upto 120 mins pretreated with GLP-1R antagonist by OGTT; type: functional, organism-based
Mus musculus [21] = assay: Anorexigenic effect in sc dosed ICR mouse assessed as decrease in food intake measured upto 72 hrs by acute food intake study; type: functional, organism-based; conditions: dose 10-100 nmol/kg
Mus musculus [22] = assay: Reduction in feed intake in DIO mouse at 30 nmol/kg, sc treated twice a day measured after 21 days; type: functional, organism-based; conditions: time 21.0 day
Mus musculus [23] = assay: Anorexigenic effect in ICR mouse assessed as decrease in food intake at 30 nmol/kg, sc measured upto 72 hrs by acute food intake study; type: functional, organism-based
[24] = molecular target: T3, Glucagon-like peptide 1 receptor (Homo sapiens, UniProt P43220); assay: Agonist activity at human GLP-1 receptor expressed in HEK293 cells assessed as cAMP level measured after 60 mins by HTRF based assay; type: functional, cell-based
T3 sequence (P43220 whole entry): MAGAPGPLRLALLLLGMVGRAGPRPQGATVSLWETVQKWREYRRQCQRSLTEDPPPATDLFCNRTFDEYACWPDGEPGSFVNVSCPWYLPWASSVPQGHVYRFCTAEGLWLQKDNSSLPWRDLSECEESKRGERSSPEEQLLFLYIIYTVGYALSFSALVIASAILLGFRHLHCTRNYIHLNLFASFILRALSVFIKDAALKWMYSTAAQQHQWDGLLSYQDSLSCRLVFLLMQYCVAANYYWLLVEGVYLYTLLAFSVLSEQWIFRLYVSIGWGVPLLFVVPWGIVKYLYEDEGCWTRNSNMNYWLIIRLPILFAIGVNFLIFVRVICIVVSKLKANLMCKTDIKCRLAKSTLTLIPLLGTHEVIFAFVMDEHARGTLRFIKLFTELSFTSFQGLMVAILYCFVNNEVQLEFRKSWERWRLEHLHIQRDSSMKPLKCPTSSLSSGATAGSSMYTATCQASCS

[25] = molecular target: T3, Glucagon-like peptide 1 receptor; assay: Agonist activity at human GLP-1 receptor expressed in HEK293 cells assessed as cAMP level by measuring relative percent (GLP-1 EC50/compound EC50) measured after 60 mins by HTRF based assay relative to GLP-1; type: functional, cell-based; conditions: filed as agonist
[26] = molecular target: T3, Glucagon-like peptide 1 receptor; assay: Potency index, ratio of Semaglutide EC50 to test compound EC50 for agonist activity at human GLP-1 receptor expressed in HEK293 cells assessed as cAMP level measured after 60 mins by HTRF based assay; type: functional, cell-based; conditions: filed as agonist
Mus musculus [27] = assay: Reduction in hepatic lipid content in DIO mouse at 30 nmol/kg, sc treated twice a day measured after 21 days by H and E staining based assay; type: functional, organism-based; conditions: time 21.0 day
Glucagon receptor [28] = molecular target: T2, Glucagon receptor; assay: Agonist activity at human GCGR expressed in HEK293 cells assessed as cAMP level by measuring relative percent (glucagon EC50/compound EC50) measured after 60 mins by HTRF based assay relative to glucagon; type: functional, cell-based; conditions: filed as agonist

## CCCCCCCCCCCCCCCC(=O)N[C@@H](CCC(=O)NCCCC[C@H](NC(=O)[C@H](Cc1ccc(O)cc1)NC(=O)[C@H](CCCCN)NC(=O)[C@H](CO)NC(=O)[C@H](CCSC)NC(=O)[C@H](CC(=O)O)NC(=O)[C@H](CO)NC(=O)[C@@H](NC(=O)[C@H](Cc1ccccc1)NC(=O)[C@@H](NC(=O)CNC(=O)[C@H](CCC(N)=O)NC(=O)[C@H](CO)NC(=O)[C@@H](N)Cc1c[nH]cn1)[C@@H](C)O)[C@@H](C)O)C(=O)N[C@@H](CC(=O)O)C(=O)N[C@@H](CO)C(=O)N[C@@H](CCCNC(=N)N)C(=O)N[C@@H](CCCNC(=N)N)C(=O)N[C@@H](C)C(=O)N[C@@H](CCC(N)=O)C(=O)N[C@@H](CC(=O)O)C(=O)N[C@@H](Cc1ccccc1)C(=O)N[C@H](C(=O)N[C@@H](CC(=O)O)C(=O)N[C@@H](Cc1c[nH]c2ccccc12)C(=O)N[C@@H](CC(C)C)C(=O)N[C@@H](CCCCN)C(=O)N[C@@H](CC(N)=O)C(=O)NCC(=O)NCC(=O)N1CCC[C@H]1C(=O)N[C@@H](CO)C(=O)N[C@@H](CO)C(=O)NCC(=O)N[C@@H](C)C(=O)N1CCC[C@H]1C(=O)N1CCC[C@H]1C(=O)N1CCC[C@H]1C(=O)N[C@@H](CO)C(N)=O)C(C)C)C(=O)O (H-HSQGTFTSDMSKYK([γGlu-Palmitoyl])DSRRAQDFVDWLKNGGPSSGAPPPS-NH2)
Mus musculus [1]
  Activity: Active
Mus musculus [2]
  Activity: Active
Mus musculus [3]
  Activity: Active
Mus musculus [4]
  Activity: Active
Mus musculus [5]
  Activity: Active
[6]
  Ratio EC50: 3
[7]
  Activity: Active
Mus musculus [8]
  Activity: Active
Mus musculus [9]
  Activity: 30.6%
Mus musculus [10]
  Activity: Active
Mus musculus [11]
  Activity: Active
[12]
  Activity: Active
Glucagon receptor [13]
  pEC50: 10.57
Mus musculus [14]
  Activity: Active
Mus musculus [15]
  Activity: Active
Mus musculus [16]
  Activity: Active
Glucagon receptor [17]
  Ratio EC50: 3
Mus musculus [18]
  Activity: Active
Mus musculus [19]
  Activity: Active
Mus musculus [20]
  Activity: inactive
Mus musculus [21]
  Activity: Dose-Dependent Effect
Mus musculus [22]
  Activity: Active
Mus musculus [23]
  Activity: Active
[24]
  pEC50: 10.96
[25]
  Activity: 482%
[26]
  Ratio EC50: 3
Mus musculus [27]
  Activity: Active
Glucagon receptor [28]
  Activity: 341%
